From PubChem BioAssay (NCI)
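Assay format: 96-well plates, 48-hour exposure. GI50 marks 50% less growth. TGI is the concentration that stops growth completely.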

Tests used:
Experiment in all cases: DTP human tumour cell line panel, 48 h
[1] = system: UO-31 renal
[2] = system: OVCAR-3 ovarian
[3] = system: OVCAR-5 ovarian
[4] = system: HCT-15 colon
[5] = system: SF-539 CNS
[6] = system: EKVX NSCLC
[7] = system: CAKI-1 renal
[8] = system: HS 578T breast
[9] = system: M14 melanoma
[10] = system: SF-295 CNS
[11] = system: MDA-MB-435
[12] = system: MCF7 breast
[13] = system: U251 CNS
[14] = system: RXF 393 renal
[15] = system: OVCAR-4 ovarian
[16] = system: SK-MEL-28 melanoma
[17] = system: MALME-3M melanoma
[18] = system: A549 NSCLC
[19] = system: UACC-257 melanoma
[20] = system: 786-0 renal
[21] = system: T-47D breast
[22] = system: HT29 colon
[23] = system: SNB-75 CNS
[24] = system: UACC-62 melanoma
[25] = system: MOLT-4 leukemia
[26] = system: NCI-H460 lung
[27] = system: HOP-92 NSCLC
[28] = system: NCI-H226 lung
[29] = system: SR leukemia
[30] = system: SK-MEL-2 melanoma
[31] = system: HL-60(TB) leukemia
[32] = system: HCC-2998 colon
[33] = system: ACHN renal
[34] = system: NCI-H23 lung
[35] = system: SK-OV-3 ovarian
[36] = system: NCI-H522 lung
[37] = system: SW-620 colon
[38] = system: BT-549 breast
[39] = system: CCRF-CEM leukemia
[40] = system: SF-268 CNS
[41] = system: TK-10 renal
[42] = system: OVCAR-8 ovarian
[43] = system: LOX IMVI melanoma
[44] = system: IGROV1 ovarian
[45] = system: PC-3 prostate
[46] = system: DU-145 prostate
[47] = system: KM12 colon
[48] = system: HCT-116 colon
[49] = system: HOP-62 NSCLC
[50] = system: MDA-MB-231 breast
[51] = system: A498 renal
[52] = system: SN12C renal
[53] = system: SNB-19 CNS
[54] = system: SK-MEL-5 melanoma
[55] = system: COLO 205 colon

## C=CCN=c1sc2c(n1NC(=O)c1cc3ccc1CCc1ccc(cc1)CC3)C(=O)c1ccccc1C2=O
[1]
  GI50: 0.496 µM
  TGI: 2.09 µM
[2]
  GI50: 0.328 µM
  TGI: 1.43 µM
[3]
  GI50: 2.03 µM
  TGI: 4.38 µM
[4]
  GI50: 1.52 µM
  TGI: 3.5 µM
[5]
  GI50: 1.69 µM
  TGI: 3.12 µM
[6]
  GI50: 1.39 µM
  TGI: 3.46 µM
[7]
  GI50: 1.18 µM
  TGI: 2.86 µM
[8]
  GI50: 2.04 µM
  TGI: 6.93 µM
[9]
  GI50: 1.63 µM
  TGI: 3.3 µM
[10]
  GI50: 1.68 µM
  TGI: 3.08 µM
[11]
  GI50: 0.194 µM
  TGI: 0.363 µM
[12]
  GI50: 1.23 µM
  TGI: 3.36 µM
[13]
  GI50: 1.6 µM
  TGI: 4.28 µM
[14]
  GI50: 1.35 µM
  TGI: 2.71 µM
[15]
  GI50: 1.26 µM
  TGI: 2.56 µM
[16]
  GI50: 1.87 µM
  TGI: 3.35 µM
[17]
  GI50: 0.383 µM
  TGI: 1.58 µM
[18]
  GI50: 2.26 µM
  TGI: 5.61 µM
[19]
  GI50: 1.55 µM
  TGI: 3.15 µM
[20]
  GI50: 2.3 µM
  TGI: 5.7 µM
[21]
  GI50: 2.02 µM
  TGI: 7.29 µM
[22]
  GI50: 3.09 µM
  TGI: > 100 µM
[23]
  GI50: 0.843 µM
  TGI: 2.77 µM
[24]
  GI50: 1.63 µM
  TGI: 3.91 µM
[25]
  GI50: 1.22 µM
  TGI: 5.76 µM
[26]
  GI50: 1.94 µM
  TGI: 3.97 µM
[27]
  GI50: 1.56 µM
  TGI: 4.19 µM
[28]
  GI50: 1.61 µM
  TGI: 3.35 µM
[29]
  GI50: 1.78 µM
  TGI: > 100 µM
[30]
  GI50: 1.74 µM
  TGI: 4.32 µM
[31]
  GI50: 0.395 µM
  TGI: 3.26 µM
[32]
  GI50: 1.62 µM
  TGI: 3.14 µM
[33]
  GI50: 1.42 µM
  TGI: 2.91 µM
[34]
  GI50: 1.46 µM
  TGI: 3.76 µM
[35]
  GI50: 3.7 µM
  TGI: 23.4 µM
[36]
  GI50: 1.49 µM
  TGI: 4.19 µM
[37]
  GI50: 1.63 µM
  TGI: 3.45 µM
[38]
  GI50: 1.53 µM
  TGI: 2.91 µM
[39]
  GI50: 2.39 µM
  TGI: > 100 µM
[40]
  GI50: 1.68 µM
  TGI: 4.48 µM
[41]
  GI50: 4.48 µM
  TGI: 8.14 µM
[42]
  GI50: 2.13 µM
  TGI: 11.2 µM
[43]
  GI50: 0.532 µM
  TGI: 2.1 µM
[44]
  GI50: 1.13 µM
  TGI: 3.21 µM
[45]
  GI50: 1.49 µM
  TGI: 8.81 µM
[46]
  GI50: 1.85 µM
  TGI: 3.45 µM
[47]
  GI50: 2.68 µM
  TGI: 8.8 µM
[48]
  GI50: 0.577 µM
  TGI: 2.58 µM
[49]
  GI50: 1.96 µM
  TGI: 4.85 µM
[50]
  GI50: 1.27 µM
  TGI: 6.68 µM
[51]
  GI50: 10.5 µM
  TGI: 47 µM
[52]
  GI50: 1.22 µM
  TGI: 2.79 µM
[53]
  GI50: 1.67 µM
  TGI: 3.44 µM
[54]
  GI50: 1.41 µM
  TGI: 2.75 µM
[55]
  GI50: 1.94 µM
  TGI: 4.24 µM
